Measured values from patent US5726203A, “Qinghaosu derivatives against AIDS” (priority 1993, dated 1998).

Assay: Acute toxicity in mice
Format: in vivo
Details: for LD50: mouse, in vivo, po
Experimental: Animals: Hybrid swiss strain mice (provided by Animal House of Institute of Chinese Mateia Media, China Academy of Traditional Chinese Medicine), 20-22 grams, less than 6 weeks age of both sexes fed in laboretory for 3-5 days observation and a random taking food and drinking.
Drugs: Dihydroqinghaosu-methylcarbamate and dihydroqinghaosu-benzenecarbamate.
Above two drugs in powder form were dissolved into peanut oil. The biggest dose were 2000 mg/kg and 2161 mg/kg respectively. The distances between two dose groups were 0.7 and 0.68 respectively, with 5 dose groups each drugs.
Method: The mice were given single dose of above compound respectively intragastrically, the acute intoxication manifestrations were observed the LD value (LD5, LD50 and LD95) and B value were determined by three days mortality.

[1] = F + M, single dose intragastrically
[2] = F, single dose intragastrically
[3] = M, single dose intragastrically

SMILES: CNC(=O)OC1OC2OC3(C)CCC4C(C)CCC(C1C)C24OO3 (stereo not shown) [Dihydroqinghaosu-methylcarbamate, Dihydroqinghaosu-Methylcarbamate]
- Death distribution of mice, exp./death (462 mg/kg, female): 5/0
- Death distribution of mice, exp./death (462 mg/kg, female + male): 10/1
- Death distribution of mice, exp./death (462 mg/kg, male): 5/1
- Death distribution of mice, exp./death (680 mg/kg, female): 5/2
- Death distribution of mice, exp./death (680 mg/kg, female + male): 10/2
- Death distribution of mice, exp./death (680 mg/kg, male): 5/1
- Death distribution of mice, exp./death (1000 mg/kg, female): 5/2
- Death distribution of mice, exp./death (1000 mg/kg, female + male): 10/4
- Death distribution of mice, exp./death (1000 mg/kg, male): 5/2
- Death distribution of mice, exp./death (1470 mg/kg, female): 5/2
- Death distribution of mice, exp./death (1470 mg/kg, female + male): 10/5
- Death distribution of mice, exp./death (1470 mg/kg, male): 5/3
- Death distribution of mice, exp./death (2161 mg/kg, female): 5/5
- Death distribution of mice, exp./death (2161 mg/kg, female + male): 10/10
- Death distribution of mice, exp./death (2161 mg/kg, male): 5/5
- LD5 [1]: 435.75 mg/kg
- LD95 [1]: 2883.02 mg/kg
- slope (B) [1]: 4.01
- LD5 [2]: 543.17 mg/kg
- LD95 [2]: 2711.67 mg/kg
- slope (B) [2]: 4.711
- LD5 [3]: 360.92 mg/kg
- LD95 [3]: 2932.84 mg/kg
- slope (B) [3]: 3.620
- LD50 [1]: 1120 mg/kg
- LD50 [2]: 1210 mg/kg
- LD50 (P.O. (per os)): 1120 mg/kg
- LD50 (single dose intragastrically): 1030 mg/kg
